The source of these data is US20230086703A1, “N-(4-(5-chloropyridin-3-yl)phenyl)-2-(2-(cyclopropanesulfonamido)pyrimidin-4-yl) butanamide derivatives and related compounds as human CTPS1 inhibitors for the treatment of proliferative diseases” (Step Pharma S.A.S., priority 2019, published 2023).

The structures appear in SMILES notation. Read-outs that look alike come from different tables or passages of the source.

For this test, the target named is T1, human CTPS1 (Homo sapiens, UniProt P17812).
T1 construct: FLAG (with GG linker); His8 (with GG linker); purchased Proteros biostructures GmbH
T1 sequence (P17812 1-591): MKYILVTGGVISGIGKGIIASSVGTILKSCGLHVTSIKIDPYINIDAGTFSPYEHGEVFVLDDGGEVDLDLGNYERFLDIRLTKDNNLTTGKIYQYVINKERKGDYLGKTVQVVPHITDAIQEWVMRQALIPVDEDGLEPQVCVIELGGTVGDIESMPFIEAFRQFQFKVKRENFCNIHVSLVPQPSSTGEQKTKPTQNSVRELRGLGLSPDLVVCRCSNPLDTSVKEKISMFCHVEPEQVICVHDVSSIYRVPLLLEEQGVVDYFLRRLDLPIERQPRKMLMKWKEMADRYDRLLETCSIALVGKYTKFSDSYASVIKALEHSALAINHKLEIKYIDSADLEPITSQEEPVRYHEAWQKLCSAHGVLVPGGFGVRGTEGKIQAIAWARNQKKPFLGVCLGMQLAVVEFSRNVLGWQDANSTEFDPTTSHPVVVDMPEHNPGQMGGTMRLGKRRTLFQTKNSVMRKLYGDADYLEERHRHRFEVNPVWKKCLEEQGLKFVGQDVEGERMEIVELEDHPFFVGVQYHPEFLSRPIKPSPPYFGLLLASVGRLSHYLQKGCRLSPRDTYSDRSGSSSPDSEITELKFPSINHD
Kind of test: Human CTPS1 enzyme inhibition, ADP-Glo Max assay. It is filed as biochemical. A digest of the protocol:
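Enzyme preincubated with compound for 10 min at 25 °C in 50 mM Tris pH 8.0, 10 mM MgCl2, 0.01% Tween-20, 2 mM L-cysteine. ATP-to-ADP conversion detected by ADP-Glo Max luminescence after 60 min depletion and 60 min development steps. Percentage inhibition calculated per concentration.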
(In general: ADP-Glo first removes unused ATP, then detects ADP through luciferase.)

The mark [1] stands for this setting: ADP-Glo Max assay, Table 10, read-out: Human CTPS1 Enzyme Inhibition, IC50 grouped by potency range (CTPS1).

As for `COc1cncc(-c2ccc(NC(=O)C(C)(C)c3csc(NS(=O)(=O)C4CC4)n3)c(F)c2)c1` [T56, 2-(2-(cyclopropanesulfonamido)thiazol-4-yl)-N-(2-fluoro-4-(5-methoxypyridin-3-yl)phenyl)-2-methylpropanamide], the IC50 under setting [1] is < 100 nM. For `CCOc1cncc(-c2ccc(NC(=O)C(C)(C)c3csc(NS(=O)(=O)CCOC)n3)c(F)c2)n1` [T432, N-(4-(6-ethoxypyrazin-2-yl)-2-fluorophenyl)-2-(2-((2-methoxyethyl)sulfonamido)thiazol-4-yl)-2-methylpropanamide], the IC50 under setting [1] was 100 to 1000 nM. As to `CC(C)(C(=O)Nc1ccc(-c2cncc(N3CCCC3)n2)cc1)c1csc(NS(=O)(=O)C2CC2)n1` [T278, 2-(2-(cyclopropanesulfonamido)thiazol-4-yl)-2-methyl-N-(4-(6-(pyrrolidin-1-yl)pyrazin-2-yl)phenyl)propanamide], the IC50 under setting [1] is < 100 nM. For `CC(C)(C(=O)Nc1ccc(-c2cncnc2)cn1)c1csc(NS(=O)(=O)C2CC2)n1` [T264, 2-(2-(cyclopropanesulfonamido)thiazol-4-yl)-2-methyl-N-(5-(pyrimidin-5-yl)pyridin-2-yl)propanamide], the IC50 under setting [1] lay in the range of 100 to 1000 nM. For the compound `CCOc1cncc(-c2ccc(NC(=O)C(C)(C)c3csc(NS(=O)(=O)C4CC4)n3)cc2)c1` [T290, 2-(2-(cyclopropanesulfonamido)thiazol-4-yl)-N-(4-(5-ethoxypyridin-3-yl)phenyl)-2-methylpropanamide], the IC50 under setting [1] is < 100 nM. For `COc1cncc(-c2ccc(NC(=O)Cc3csc(NS(=O)(=O)C4CC4)n3)cc2)n1` [T81, 2-(2-(cyclopropanesulfonamido)thiazol-4-yl)-N-(4-(6-methoxypyrazin-2-yl)phenyl)acetamide], under setting [1], the IC50 was < 100 nM. In the case of `Cc1cncc(-c2ccc(NC(=O)C(C)(C)c3csc(NS(=O)(=O)C4CC4)n3)cc2)c1` [T30, 2-(2-(cyclopropanesulfonamido)thiazol-4-yl)-2-methyl-N-(4-(5-methylpyridin-3-yl)phenyl)propanamide], under setting [1], the IC50 was < 100 nM. Consider `CCOc1cncc(-c2ccc(NC(=O)C3(c4ccnc(NS(=O)(=O)C5CC5)n4)CCC(N)CC3)nc2)n1` (stereo not shown) [P304], for which, where the note is “Table 12, ADP-Glo Max assay, read-out: CTPS1 (Human CTPS1 Enzyme Inhibition data grouped by potency range)”, the IC50 was < 100 nM.

`COc1ccnc(-c2ccc(NC(=O)C(C)(C)c3csc(NS(=O)(=O)C4CC4)n3)cc2)c1` [T271, 2-(2-(cyclopropanesulfonamido)thiazol-4-yl)-N-(4-(4-methoxypyridin-2-yl)phenyl)-2-methylpropanamide]: the IC50 under setting [1] lay in the range of 1000 to 10000 nM.

As to `CC(C)(C(=O)Nc1ccc(-c2cccnc2)cn1)c1csc(NS(=O)(=O)C2CC2)n1` [T148, N-([3,3′-bipyridin]-6-yl)-2-(2-(cyclopropanesulfonamido)thiazol-4-yl)-2-methylpropanamide], the IC50 under setting [1] was in the range of 100 to 1000 nM.

`C#Cc1cncc(-c2ccc(NC(=O)C(C)(C)c3csc(NS(=O)(=O)C4CC4)n3)cc2)n1` [T136, 2-(2-(cyclopropanesulfonamido)thiazol-4-yl)-N-(4-(6-ethynylpyrazin-2-yl)phenyl)-2-methylpropanamide]: the IC50 under setting [1] is < 100 nM. Same read-out and setting: as for `COc1cc(-c2cncc(Cl)c2)ccc1NC(=O)C(C)(C)c1csc(NS(=O)(=O)C2CC2)n1` [T256, N-(4-(5-chloropyridin-3-yl)-2-methoxyphenyl)-2-(2-(cyclopropanesulfonamido)thiazol-4-yl)-2-methylpropanamide], the figure is < 100 nM; as for `CC(C)(C(=O)Nc1ccc(-c2cccnc2)cc1)c1csc(NS(=O)(=O)C(C)(C)C)n1` [T303, 2-(2-((1,1-dimethylethyl)sulfonamido)thiazol-4-yl)-2-methyl-N-(4-(pyridin-3-yl)phenyl)propanamide], 1000 to 10000 nM; as for `CCOc1cncc(-c2ccc(NC(=O)C(C)(C)c3csc(NS(=O)(=O)C(F)(F)F)n3)cc2)n1` [T296, N-(4-(6-ethoxypyrazin-2-yl)phenyl)-2-methyl-2-(2-((trifluoromethyl)sulfonamido)thiazol-4-yl)propanamide], 100 to 1000 nM. As to `CCOc1cncc(-c2ccc(NC(=O)Cc3csc(NS(=O)(=O)C4CC4)n3)cc2)n1` [T424, 2-(2-(cyclopropanesulfonamido)thiazol-4-yl)-N-(4-(6-ethoxypyrazin-2-yl)phenyl)acetamide], the IC50 under setting [1] is < 100 nM.

On to `COc1cccc(-c2ccc(NC(=O)C(C)(C)c3csc(NS(=O)(=O)C4CC4)n3)cc2)n1` [T269, 2-(2-(cyclopropanesulfonamido)thiazol-4-yl)-N-(4-(6-methoxypyridin-2-yl)phenyl)-2-methylpropanamide], for which the IC50 under setting [1] was 100 to 1000 nM. Still for that read-out and setting: the same measure for `Cc1cncc(-c2ccc(NC(=O)C(C)(C)c3csc(NS(=O)(=O)C4CC4)n3)nc2)c1` [T249, 2-(2-(cyclopropanesulfonamido)thiazol-4-yl)-2-methyl-N-(5′-methyl-[3,3′-bipyridin]-6-yl)propanamide]: < 100 nM.

`CC(C)(C(=O)Nc1ccc(-c2cncc(OCC(F)(F)F)c2)cn1)c1csc(NS(=O)(=O)C2CC2)n1` [T114, 2-(2-(cyclopropanesulfonamido)thiazol-4-yl)-2-methyl-N-(5′-(2,2,2-trifluoroethoxy)-[3,3′-bipyridin]-6-yl)propanamide]: the IC50 under setting [1] lay within 100 to 1000 nM.

For `CC(C)(C(=O)Nc1ccc(-c2cncc(C(F)(F)F)c2)cc1)c1csc(NS(=O)(=O)C2CC2)n1` [T48, 2-(2-(cyclopropanesulfonamido)thiazol-4-yl)-2-methyl-N-(4-(5-(trifluoromethyl)pyridin-3-yl)phenyl)propanamide], the IC50 under setting [1] was < 100 nM. On to `CC(C)(C(=O)Nc1ccc(-c2cncc(Cl)c2)cc1)c1csc(NS(=O)(=O)C2(C)CC2)n1` [T300, N-(4-(5-chloropyridin-3-yl)phenyl)-2-methyl-2-(2-((1-methylcyclopropane)-1-sulfonamido)thiazol-4-yl)propanamide], for which the IC50 under setting [1] lay in the range of 100 to 1000 nM. In the case of `CC(C)(C(=O)Nc1ncc(-c2cccnc2)cn1)c1csc(NS(=O)(=O)C2CC2)n1` [T37, 2-(2-(cyclopropanesulfonamido)thiazol-4-yl)-2-methyl-N-(5-(pyridin-3-yl)pyrimidin-2-yl)propanamide], the IC50 under setting [1] was in the range of 100 to 1000 nM.

Consider `CC(C)(C(=O)Nc1ccc(-c2cncc(C(F)(F)F)c2)cc1F)c1csc(NS(=O)(=O)CC2CC2)n1` [T427, 2-(2-((cyclopropylmethyl)sulfonamido)thiazol-4-yl)-N-(2-fluoro-4-(5-(trifluoromethyl)pyridin-3-yl)phenyl)-2-methylpropanamide], for which the IC50 under setting [1] lay in the range of 100 to 1000 nM. Regarding `CC(C)(C(=O)Nc1ccc(-c2cncc(Cl)c2)c(C(F)(F)F)c1)c1csc(NS(=O)(=O)C2CC2)n1` [T370, N-(4-(5-chloropyridin-3-yl)-3-(trifluoromethyl)phenyl)-2-(2-(cyclopropanesulfonamido)thiazol-4-yl)-2-methylpropanamide], under setting [1], the IC50 was in the range of 1000 to 10000 nM. For `O=C(Cc1csc(NS(=O)(=O)C2CC2)n1)Nc1ccc(-c2cncc(CO)c2)cc1` [T45, 2-(2-(cyclopropanesulfonamido)thiazol-4-yl)-N-(4-(5-(hydroxymethyl)pyridin-3-yl)phenyl)acetamide], the IC50 under setting [1] was 100 to 1000 nM. For the compound `COc1cncc(-c2ccc(NC(=O)C(C)(C)c3csc(NS(=O)(=O)C4CC4)n3)c(C)c2)c1` [T285, 2-(2-(cyclopropanesulfonamido)thiazol-4-yl)-N-(4-(5-methoxypyridin-3-yl)-2-methylphenyl)-2-methylpropanamide], the IC50 under setting [1] was < 100 nM.
